Converted amounts (≈) assume the structure as drawn.
What was measured:
Format in all cases: functional
Escherichia coli [1] = assay: Antibacterial activity against wild type Escherichia coli DK/pKK3535
Staphylococcus aureus [2] = assay: Antibacterial activity against Staphylococcus aureus UCN14 harboring ribosomal […] mutant
Staphylococcus aureus [3] = assay: Antibacterial activity against Staphylococcus aureus ATCC 33591 harboring ermA mutant
Escherichia coli [4] = assay: Antibacterial activity against Escherichia coli DK/2058G harboring ribosomal A2058G mutant
Escherichia coli [5] = assay: Antibacterial activity against Escherichia coli SQ171/2058G harboring ribosomal A2058G mutant

## CC[C@H]1OC(=O)[C@H](C)C(=O)C[C@@H](O[C@@H]2O[C@H](C)C[C@H](N(C)C)[C@H]2O)[C@@](C)(OC)CCC(=O)C[C@@H]2N(CCCCn3cnc(-c4cccnc4)c3)C(=O)O[C@@]21C
Escherichia coli [1]
  MIC: 32 µg/mL (≈ 41.6 µM)

## CC[C@H]1OC(=O)[C@H](C)C(=O)[C@H](C)[C@@H](O[C@@H]2O[C@H](C)C[C@H](N(C)C)[C@H]2O)[C@](C)(OC)C[C@@H](C)C(=O)[C@H](C)[C@H]2N(CCCCn3cnc(-c4cccnc4)c3)C(=O)O[C@]12C [TELITHROMYCIN]
Staphylococcus aureus [2]
  MIC: > 256 µg/mL
Staphylococcus aureus [3]
  MIC: > 128 µg/mL
Escherichia coli [4]
  MIC: 1 µg/mL (≈ 1.23 µM)
Escherichia coli [1]
  MIC: 0.5 µg/mL (≈ 0.616 µM)
Escherichia coli [5]
  MIC: > 512 µg/mL

From ChEMBL document CHEMBL1649101, “Desmethyl Macrolide Analogues to Address Antibiotic Resistance: Total Synthesis and Biological Evaluation of 4,8,10-Tridesmethyl Telithromycin” (2011)
